# Reference: US5440016A, “Peptides of the formula (KFmoc) ZZZ and their uses” (priority 1993, dated 1995)
# Square brackets hold non-standard residues; d marks the D form. Ends that are not written are not given here. Peptide text beside a SMILES is read from it.
# Columns and labels:
# [1] = tested on: Staphylococcus aureus ATCC 29213; conditions: for IC50 (μg/ml) against S. aureus: Tables 22-23; for IC50 against S. aureus: Tables 7-9, lower parts (unnatural amino acids)
# Protocol: (§1) Escherichia coli ATCC 25922 and P. aeruginosa ATCC 27853 were used as Gram-negative (-) and Staphylococcus aureus ATCC 29213 as Gram-positive (+) bacteria. Bacteria were grown overnight at 37° C. in Mueller-Hinton (MH) broth. This culture was reinoculated and incubated at 37° C. to reach the exponential phase of bacteria growth, i.e., a final bacterial suspension containing 10^5 to 5×10^5 colony-forming units (CFU)/ml. The concentration of cells was established by plating 100 μl of different dilutions of the culture solution (e.g., 10^-2, 10^-3 and 10^-4) onto solid agar plates.
# (§2) Following an overnight incubation at 37° C., the CFU thus formed were counted on each agar plate. In 96-well tissue culture plates, as control blanks, eight wells per plate contained only medium, while as a positive growth control, eight other wells contained medium plus cells.
# (§3) The plates were incubated overnight at 37° C., and the optical density (OD) determined at 620 nm after different times of incubation.
# [2] = tested on: Streptococcus sanguis ATCC 10556; conditions: for IC50 (μg/ml) against S. sanguis: Tables 22-23; for IC50 against S. sanguis: Tables 11-13, lower parts (unnatural amino acids)
# Protocol: Streptococcus sanguis ATCC 10556 (Gram-positive (+) bacteria present in tooth crevices) was grown overnight at 37° C. in Brain Heart Infusion (BHI) broth. This culture was reinoculated and incubated at 37° C. to reach the exponential phase of bacteria growth, i.e., a final bacterial suspension containing 10^5 to 5×10^5 colony-forming units (CFU)/ml. The concentration of cells was established by plating 100 μl of different dilutions of the culture solution (e.g., 10^-2, 10^-4) and 10^-4) onto solid agar plates. Following an overnight incubation at 37° C., the CFU thus formed were counted on each agar plate. In 96-well tissue culture plates, as control blanks, eight wells per plate contained only medium, while as a positive growth control, eight other wells contained medium plus cells. […] The plates were incubated overnight at 37° C., and the optical density (OD) determined at 620 nm after 20 to 24 hours incubation.
# [3] = tested on: Human red blood cells (RBCs); assay: Hemolytic activity; assay type: cell-based; conditions: for % hemolysis at 100 μg/ml: Tables 22-23
# [4] = tested on: Candida albicans ATCC 10231; conditions: for IC50 (μg/ml) against C. albicans: Tables 22-23; for IC50 against C. albicans: Tables 15-17, lower parts (unnatural amino acids)
# [5] = tested on: P. aeruginosa ATCC 27853; assay: Antimicrobial assay, P. aeruginosa; conditions: Tables 22-23
# Protocol: as §1, §2, §3
# [6] = tested on: Escherichia coli ATCC 25922; conditions: for IC50 (μg/ml) against E. coli: Tables 22-23; for IC50 against E. coli: Tables 3-5, lower parts (unnatural amino acids)
# Protocol: as §1, §2, §3
Compound,IC50 (μg/ml) against S. aureus [1] [µg/mL],IC50 (μg/ml) against S. sanguis [2] [µg/mL],% hemolysis at 100 μg/ml [3] [%],IC50 (μg/ml) against C. albicans [4] [µg/mL],IC50 (μg/ml) against P. aeruginosa [5] [µg/mL],IC50 (μg/ml) against E. coli [6] [µg/mL],IC50 against S. aureus [1] [μg/m],IC50 against S. sanguis [2] [μg/m],"HD50 (concentration necessary to lyse 50% of the cells) ([3]; Table 20, lower part) [μg/m]",IC50 against C. albicans [4] [μg/m],IC50 against E. coli [6] [μg/m],HD50 (concentration necessary to lyse 50% of the cells) ([3]; Tables 18-21) [µg/mL]
CC(=O)N[C@@H](CCCNC(=N)N)C(=O)N[C@@H](CCCNC(=N)N)C(=O)N[C@@H](Cc1c[nH]c2ccccc12)C(=O)N[C@@H](Cc1c[nH]c2ccccc12)C(=O)N[C@@H](CS)C(=O)N[C@@H](CS)C(N)=O [Ac-RRWWCC-NH2] (Ac-RRWWCC-NH2),47 to 63,92 to 94,9.5,162 to 166,86 to 88,54 to 68,–,–,–,–,–,–
CC(=O)N[C@H](CCCNC(=N)N)C(=O)N[C@H](CCCNC(=N)N)C(=O)N[C@H](Cc1c[nH]c2ccccc12)C(=O)N[C@H](Cc1c[nH]c2ccccc12)C(=O)N[C@H](CS)C(=O)N[C@H](CCCNC(=N)N)C(N)=O [Ac-rrwwcr-NH2] (Ac-[dR][dR][dW][dW][dC][dR]-NH2),9 to 13,14 to 15,2.0,68 to 78,28 to 29,10 to 11,–,–,–,–,–,–
CC(=O)N[C@H](CCCNC(=N)N)C(=O)N[C@H](CCCNC(=N)N)C(=O)N[C@H](Cc1c[nH]c2ccccc12)C(=O)N[C@H](Cc1c[nH]c2ccccc12)C(=O)N[C@H](CS)C(=O)N[C@@H](C(N)=O)C(C)C [Ac-rrwwcv-NH2] (Ac-[dR][dR][dW][dW][dC][dV]-NH2),16 to 19,7 to 8,10.0,107 to 119,58 to 88,9 to 10,–,–,–,–,–,–
(KFmoc)Wf(KCBZ)-NH2,–,–,–,–,–,–,3,4,52,58,28,–
(KFmoc)Wf(aABA)-NH2,–,–,–,–,–,–,6,7,241,72,21,–
(KFmoc)Wf(aAIB)-NH2,–,–,–,–,–,–,4,4,383,62,27,–
(KFmoc)Wf(dOrn)-NH2,–,–,–,–,–,–,4,4,42,54,19,–
(KFmoc)ci(Hyp)-NH2,–,–,–,–,–,–,8,8,–,205,52,39
(KFmoc)ci(KCBZ)-NH2,–,–,–,–,–,–,5,3,–,78,15,53
(KFmoc)ci(dOrn)-NH2,–,–,–,–,–,–,4,2,–,121,20,77
Ac-RRWWCA-NH2 [Ac-RRWWCA-NH2],35 to 40,60 to 70,2.2,193 to 210,97 to 98,21 to 23,–,–,–,–,–,–
Ac-RRWWCD-NH2 [Ac-RRWWCD-NH2],> 125,> 500,0.3,> 1000,> 500,> 125,–,–,–,–,–,–
Ac-RRWWCE-NH2 [Ac-RRWWCE-NH2],> 125,> 500,0.0,842 to 874,149,> 125,–,–,–,–,–,–
Ac-RRWWCF-NH2 [Ac-RRWWCF-NH2],10 to 14,14 to 22,3.3,70 to 97,42 to 45,20 to 21,–,–,–,–,–,–
Ac-RRWWCG-NH2 [Ac-RRWWCG-NH2],46 to 49,47 to 66,1.9,215 to 218,200,22 to 23,–,–,–,–,–,–
Ac-RRWWCH-NH2 [Ac-RRWWCH-NH2],26 to 28,53 to 62,0.0,69 to 107,59 to 65,20 to 28,–,–,–,–,–,–

Compound,IC50 (μg/ml) against S. aureus [1] [µg/mL],IC50 (μg/ml) against S. sanguis [2] [µg/mL],% hemolysis at 100 μg/ml [3] [%],IC50 (μg/ml) against C. albicans [4] [µg/mL],IC50 (μg/ml) against P. aeruginosa [5] [µg/mL],IC50 (μg/ml) against E. coli [6] [µg/mL],IC50 against S. aureus [1] [μg/m],IC50 against S. sanguis [2] [μg/m],"HD50 (concentration necessary to lyse 50% of the cells) ([3]; Table 20, lower part) [μg/m]",IC50 against C. albicans [4] [μg/m],IC50 against E. coli [6] [μg/m],HD50 (concentration necessary to lyse 50% of the cells) ([3]; Tables 18-21) [µg/mL]
Ac-RRWWCI-NH2 [Ac-RRWWCI-NH2],12 to 18,17 to 18,8.3,93 to 102,40 to 70,29 to 33,–,–,–,–,–,–
Ac-RRWWCK-NH2 [Ac-RRWWCK-NH2],17 to 18,38 to 42,0.5,100 to 110,150,17 to 21,–,–,–,–,–,–
Ac-RRWWCL-NH2 [Ac-RRWWCL-NH2],–,18 to 21,5.0,65 to 95,46 to 54,19 to 22,–,–,–,–,–,–
Ac-RRWWCM-NH2 [Ac-RRWWCM-NH2],13 to 20,13 to 22,15,96 to 112,93 to 103,23 to 27,–,–,–,–,–,–
Ac-RRWWCN-NH2 [Ac-RRWWCN-NH2],98 to 125,230,0.1,222 to 227,120,40 to 55,–,–,–,–,–,–
Ac-RRWWCP-NH2 [Ac-RRWWCP-NH2],49 to 50,190,0.0,217 to 222,200,19 to 27,–,–,–,–,–,–
Ac-RRWWCQ-NH2 [Ac-RRWWCQ-NH2],52 to 98,230,0.0,223 to 230,60 to 65,41 to 42,–,–,–,–,–,–
Ac-RRWWCR-NH2 [Ac-RRWWCR-NH2],11 to 12,22 to 45,0.0,100 to 101,87 to 130,12 to 18,–,–,–,–,–,–
Ac-RRWWCS-NH2 [Ac-RRWWCS-NH2],41 to 44,54 to 59,1.8,211 to 213,290,20 to 21,–,–,–,–,–,–
Ac-RRWWCT-NH2 [Ac-RRWWCT-NH2],38 to 47,56 to 61,0.5,216 to 223,180,24 to 28,–,–,–,–,–,–
Ac-RRWWCV-NH2 [Ac-RRWWCV-NH2],19 to 21,41 to 46,0.0,103 to 174,33 to 44,17 to 18,–,–,–,–,–,–
Ac-RRWWCW-NH2 [Ac-RRWWCW-NH2],41 to 43,55 to 78,14,151 to 166,60 to 88,58 to 61,–,–,–,–,–,–
Ac-RRWWCY-NH2 [Ac-RRWWCY-NH2],12 to 28,59 to 60,5.8,184 to 212,97 to 110,20 to 21,–,–,–,–,–,–
"Cecropin A (KWKLFKKIEKVGQNIRDGIIKAGPAVAVVGQATQIAK; ends and bridges not checked; UniProt P01507 27-63, looked up) [reference compound]",> 500,337 to 400,0.0,81 to 88,5 to 6,1 to 2,–,–,–,–,–,–
MagaininII-NH2 [reference compound],32 to 64,143 to 235,–,41 to 42,150 to 200,72 to 98,–,–,–,–,–,–
